According to ChEMBL document CHEMBL1938230, “6-Position optimization of tricyclic 4-quinolone-based inhibitors of glycogen synthase kinase-3β: discovery of nitrile derivatives with picomolar potency” (Bioorg Med Chem Lett, 2012):

How the values were obtained:
Type in all cases: cell-free
[1] = biological target: Tyrosine-protein kinase HCK (Homo sapiens) (UniProt P08631); assay: Inhibition of human HCK in HL-60 cells lysate assessed as reduction of labeling of acyl-phosphate ATP probe at 100 nM
Chain of Tyrosine-protein kinase HCK (Homo sapiens) (P08631 2-526 limits assumed): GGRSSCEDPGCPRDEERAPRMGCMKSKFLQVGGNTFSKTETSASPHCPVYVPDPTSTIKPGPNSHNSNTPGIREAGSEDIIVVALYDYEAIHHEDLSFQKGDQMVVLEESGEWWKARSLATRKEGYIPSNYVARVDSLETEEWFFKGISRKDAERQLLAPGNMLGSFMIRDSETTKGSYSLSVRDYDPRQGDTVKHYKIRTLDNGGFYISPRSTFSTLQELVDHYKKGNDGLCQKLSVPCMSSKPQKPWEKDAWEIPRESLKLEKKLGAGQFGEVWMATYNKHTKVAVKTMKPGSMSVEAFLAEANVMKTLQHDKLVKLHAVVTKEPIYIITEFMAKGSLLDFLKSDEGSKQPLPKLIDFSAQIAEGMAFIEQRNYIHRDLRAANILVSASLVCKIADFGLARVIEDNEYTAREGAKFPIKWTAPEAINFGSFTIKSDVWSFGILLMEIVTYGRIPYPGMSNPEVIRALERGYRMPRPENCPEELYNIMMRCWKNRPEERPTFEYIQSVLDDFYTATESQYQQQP

[2] = biological target: DNA-dependent protein kinase catalytic subunit (Homo sapiens) (UniProt P78527); assay: Inhibition of human DNAPK in HL-60 cells lysate assessed as reduction of labeling of acyl-phosphate ATP probe at 100 nM
[3] = biological target: T1, Phosphatidylinositol 5-phosphate 4-kinase type-2 alpha (Homo sapiens) (UniProt P48426); assay: Inhibition of human PIP4K2A in HL-60 cells lysate assessed as reduction of labeling of acyl-phosphate ATP probe at 100 nM
T1 sequence (whole entry): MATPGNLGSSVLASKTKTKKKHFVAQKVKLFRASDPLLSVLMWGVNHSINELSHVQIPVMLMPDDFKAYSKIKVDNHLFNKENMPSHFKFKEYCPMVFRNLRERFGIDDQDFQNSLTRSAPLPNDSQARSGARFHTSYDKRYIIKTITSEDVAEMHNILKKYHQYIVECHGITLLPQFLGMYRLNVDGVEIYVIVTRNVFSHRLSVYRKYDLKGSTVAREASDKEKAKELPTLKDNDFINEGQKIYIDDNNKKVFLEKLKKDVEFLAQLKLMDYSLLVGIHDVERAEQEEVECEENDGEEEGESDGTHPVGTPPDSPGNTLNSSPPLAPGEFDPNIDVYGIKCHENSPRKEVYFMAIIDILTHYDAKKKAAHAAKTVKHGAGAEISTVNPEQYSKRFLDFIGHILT

[4] = biological target: T2, Mixed lineage kinase domain-like protein (Homo sapiens) (UniProt Q8NB16); assay: Inhibition of human MLKL in HL-60 cells lysate assessed as reduction of labeling of acyl-phosphate ATP probe at 100 nM
T2 sequence (whole entry): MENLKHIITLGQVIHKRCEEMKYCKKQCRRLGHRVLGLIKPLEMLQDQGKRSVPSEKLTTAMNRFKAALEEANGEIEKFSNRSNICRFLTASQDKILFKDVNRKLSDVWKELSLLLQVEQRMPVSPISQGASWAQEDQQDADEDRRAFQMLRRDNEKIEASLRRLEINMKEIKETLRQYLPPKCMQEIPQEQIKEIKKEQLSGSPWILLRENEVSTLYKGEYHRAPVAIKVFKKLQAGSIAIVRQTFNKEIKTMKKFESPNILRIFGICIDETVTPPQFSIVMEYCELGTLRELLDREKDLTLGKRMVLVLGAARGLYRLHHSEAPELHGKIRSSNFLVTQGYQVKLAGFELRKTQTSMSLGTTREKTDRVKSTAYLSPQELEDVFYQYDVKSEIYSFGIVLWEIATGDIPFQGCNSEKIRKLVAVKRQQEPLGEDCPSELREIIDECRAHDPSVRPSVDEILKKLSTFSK

[5] = biological target: T3, Scaffold protein ILK (Homo sapiens) (UniProt Q13418); assay: Inhibition of human ILK in HL-60 cells lysate assessed as reduction of labeling of acyl-phosphate ATP probe at 100 nM
T3 sequence (whole entry): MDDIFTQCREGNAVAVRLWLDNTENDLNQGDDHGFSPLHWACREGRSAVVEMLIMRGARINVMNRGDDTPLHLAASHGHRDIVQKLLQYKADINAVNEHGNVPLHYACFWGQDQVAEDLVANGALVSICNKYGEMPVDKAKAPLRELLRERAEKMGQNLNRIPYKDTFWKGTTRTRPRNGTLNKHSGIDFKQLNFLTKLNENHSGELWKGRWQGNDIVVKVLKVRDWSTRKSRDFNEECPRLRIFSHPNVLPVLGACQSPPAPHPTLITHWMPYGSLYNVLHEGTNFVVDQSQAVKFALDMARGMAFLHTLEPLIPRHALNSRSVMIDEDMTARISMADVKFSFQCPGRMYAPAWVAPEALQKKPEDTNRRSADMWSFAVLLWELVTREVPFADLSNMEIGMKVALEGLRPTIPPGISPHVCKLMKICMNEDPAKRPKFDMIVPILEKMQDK

[6] = biological target: T4, Receptor-interacting serine/threonine-protein kinase 1 (Homo sapiens) (UniProt Q13546); assay: Inhibition of human RIPK1 in HL-60 cells lysate assessed as reduction of labeling of acyl-phosphate ATP probe at 100 nM
T4 sequence (whole entry): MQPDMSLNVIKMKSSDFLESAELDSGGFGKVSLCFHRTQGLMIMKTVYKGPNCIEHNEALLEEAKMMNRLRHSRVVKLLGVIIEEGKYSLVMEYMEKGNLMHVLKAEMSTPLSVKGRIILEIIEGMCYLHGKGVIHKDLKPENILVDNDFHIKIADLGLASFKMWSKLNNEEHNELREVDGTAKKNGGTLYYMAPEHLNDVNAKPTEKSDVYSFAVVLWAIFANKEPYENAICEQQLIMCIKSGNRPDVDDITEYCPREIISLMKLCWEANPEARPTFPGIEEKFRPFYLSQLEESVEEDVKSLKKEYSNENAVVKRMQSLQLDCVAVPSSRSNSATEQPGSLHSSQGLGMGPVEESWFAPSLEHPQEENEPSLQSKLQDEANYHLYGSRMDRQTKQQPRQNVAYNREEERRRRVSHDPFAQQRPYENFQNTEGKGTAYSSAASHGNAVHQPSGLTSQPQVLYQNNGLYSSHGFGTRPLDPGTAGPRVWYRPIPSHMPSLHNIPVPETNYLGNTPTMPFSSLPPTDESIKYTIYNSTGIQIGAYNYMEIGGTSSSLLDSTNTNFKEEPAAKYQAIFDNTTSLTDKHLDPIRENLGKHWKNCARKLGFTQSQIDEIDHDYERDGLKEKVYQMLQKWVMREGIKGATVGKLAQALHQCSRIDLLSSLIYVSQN

[7] = biological target: Cyclin-dependent kinase 9 (Homo sapiens) (UniProt P50750); assay: Inhibition of human CDK9 in HL-60 cells lysate assessed as reduction of labeling of acyl-phosphate ATP probe at 100 nM
Chain of Cyclin-dependent kinase 9 (Homo sapiens) (P50750 whole entry): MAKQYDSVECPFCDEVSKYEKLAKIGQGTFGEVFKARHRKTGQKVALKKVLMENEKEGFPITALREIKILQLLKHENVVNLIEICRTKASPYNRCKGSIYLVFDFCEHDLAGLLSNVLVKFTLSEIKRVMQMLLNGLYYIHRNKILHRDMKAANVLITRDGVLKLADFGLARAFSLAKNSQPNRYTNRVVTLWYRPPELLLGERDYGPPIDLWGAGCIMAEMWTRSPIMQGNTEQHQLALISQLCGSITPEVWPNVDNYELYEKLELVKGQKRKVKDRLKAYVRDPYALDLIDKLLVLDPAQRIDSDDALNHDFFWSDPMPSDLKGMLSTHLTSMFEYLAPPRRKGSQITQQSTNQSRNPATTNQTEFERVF

[8] = biological target: Mitogen-activated protein kinase kinase kinase 11 (Homo sapiens) (UniProt Q16584); assay: Inhibition of human MLK3 in HL-60 cells lysate assessed as reduction of labeling of acyl-phosphate ATP probe at 100 nM
Chain of Mitogen-activated protein kinase kinase kinase 11 (Homo sapiens) (Q16584 whole entry, looked up): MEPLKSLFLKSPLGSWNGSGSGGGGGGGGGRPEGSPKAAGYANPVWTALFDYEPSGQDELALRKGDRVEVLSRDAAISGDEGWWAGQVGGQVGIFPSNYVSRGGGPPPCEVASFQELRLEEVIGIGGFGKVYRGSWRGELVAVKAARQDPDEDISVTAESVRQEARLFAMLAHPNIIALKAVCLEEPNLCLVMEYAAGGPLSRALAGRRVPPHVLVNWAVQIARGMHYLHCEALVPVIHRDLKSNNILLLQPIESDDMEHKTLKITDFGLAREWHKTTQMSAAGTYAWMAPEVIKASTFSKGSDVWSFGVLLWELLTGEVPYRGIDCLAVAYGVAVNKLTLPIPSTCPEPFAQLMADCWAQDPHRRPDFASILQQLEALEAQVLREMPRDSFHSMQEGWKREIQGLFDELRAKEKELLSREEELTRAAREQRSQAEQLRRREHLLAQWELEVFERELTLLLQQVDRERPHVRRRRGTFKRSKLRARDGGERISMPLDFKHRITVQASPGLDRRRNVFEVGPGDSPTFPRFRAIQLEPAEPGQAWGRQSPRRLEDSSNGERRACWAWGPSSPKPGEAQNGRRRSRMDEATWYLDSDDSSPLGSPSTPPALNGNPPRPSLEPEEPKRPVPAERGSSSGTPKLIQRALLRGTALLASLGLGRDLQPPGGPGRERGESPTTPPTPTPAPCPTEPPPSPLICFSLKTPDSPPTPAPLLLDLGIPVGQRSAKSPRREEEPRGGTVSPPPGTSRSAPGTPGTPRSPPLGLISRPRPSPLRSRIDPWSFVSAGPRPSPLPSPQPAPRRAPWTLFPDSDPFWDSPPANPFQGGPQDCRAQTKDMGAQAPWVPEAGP

Measured: inhibition

C[C@H]1COc2c(NCCCn3cccn3)c(F)c(N)c3c(=O)c(C(=O)O)cn1c23
< 35%: all assays above

C[C@H]1COc2c(NCCCc3ccccn3)c(F)c(N)c3c(=O)c(C#N)cn1c23
< 35%: all assays above

C[C@H]1COc2c(NCCCn3cccn3)c(F)c(N)c3c(=O)c(C#N)cn1c23
< 35%: all assays above

C[C@H]1COc2c(NCCCc3ccccn3)c(F)c(N)c3c(=O)c(C(=O)O)cn1c23
< 35%: all assays above
